Experimental data published in patent publication US20230114728A1 (Venatorx Pharmaceuticals, Inc., priority 2019, published 2023).
≈ marks a conversion by molar mass, not a printed value.

Key:
Assay in all cases: Broth microdilution MIC in CAMHB
Format in all cases: cell-based
[1] = tested on: A. baumannii ATCC 19606; conditions: Acinetobacter baumannii, ATCC19606; MHB; read-out: Minimum Inhibitory Concentration, A. baumannii ATCC 19606
Procedure, shortened: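 Colonies from cation-adjusted Mueller Hinton agar are grown in broth (3-5 h, 37° C), adjusted by OD600, and added at 2-8×10^5 CFU/mL to 2-fold compound dilutions. After 16-20 h at 37° C, the lowest concentration without growth is taken as MIC.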

[2] = tested on: E. coli 901C; conditions: Escherichia coli; E. coli 901C (hyper-permeable); MHB; read-out: Minimum Inhibitory Concentration, E. coli 901C
Procedure, shortened: (§1)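 MIC, read by eye, is the lowest compound concentration giving no bacterial growth after 16-20 h at 37° C. Test compounds are serially diluted 2-fold in CAMHB and seeded with 2-8×10^5 CFU/mL of bacteria taken from a 3-5 h shaking culture, following CLSI methods.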

[3] = tested on: E. coli AG100A; conditions: Escherichia coli, read-out: Minimum Inhibitory Concentration, E. coli AG100A
Procedure, shortened: as §1

[4] = tested on: E. coli AG100; conditions: Escherichia coli; E. coli AG100 (wild-type parent); MHB; read-out: Minimum Inhibitory Concentration, E. coli AG100
Procedure, shortened: as §1

[5] = tested on: E. coli ATCC 25922; conditions: Escherichia coli, ATCC25922; E. coli ATCC 25922; MHB; read-out: Minimum Inhibitory Concentration, E. coli 25922
Procedure, shortened: as §1

[6] = tested on: E. coli D22; conditions: Escherichia coli; E. coli D22 (hyper-permeable); MHB; read-out: Minimum Inhibitory Concentration, E. coli D22
Procedure, shortened: as §1

[7] = tested on: K. pneumoniae 848844 producing SHV-11 and KPC-2; conditions: Klebsiella pneumoniae, read-out: Minimum Inhibitory Concentration, K. pneumoniae 848844
Procedure, shortened: as §1

[8] = tested on: K. pneumoniae SI-117 producing VIM-1; conditions: Klebsiella pneumoniae, read-out: Minimum Inhibitory Concentration, K. pneumoniae SI-117
Procedure, shortened: as §1

[9] = tested on: K. pneumoniae UMM producing SHV-5 and KPC-2; conditions: Klebsiella pneumoniae, read-out: Minimum Inhibitory Concentration, K. pneumoniae UMM
Procedure, shortened: as §1

[10] = tested on: P. aeruginosa (ΔmexAB-oprM); conditions: Pseudomonas aeruginosa, read-out: Minimum Inhibitory Concentration, P. aeruginosa ΔmexAB-OprM
Procedure, shortened: as §1

[11] = tested on: P. aeruginosa ATCC 27853; conditions: Pseudomonas aeruginosa, ATCC27853; MHB; read-out: Minimum Inhibitory Concentration, P. aeruginosa ATCC 27853
Procedure, shortened: as §1

[12] = tested on: P. aeruginosa ATCC 35151; conditions: Pseudomonas aeruginosa, ATCC35151; MHB; hyper-permeable strain; read-out: Minimum Inhibitory Concentration, P. aeruginosa ATCC 35151
Procedure, shortened: as §1

Row | SMILES | MIC [1] | MIC [2] | MIC [3] | MIC [4] | MIC [5] | MIC [6] | MIC [7] | MIC [8] | MIC [9] | MIC [10] | MIC [11] | MIC [12]
1 | CCN1CCN(C(=O)N[C@H](C(=O)N[C@H]2Cc3ccc(F)c(C(=O)O)c3OB2O)c2c(F)cc(O)c(O)c2Cl)C(=O)C1=O (single isomer, unassigned) [Example 125] | > 128 µg/mL | < 0.25 µg/mL | 2 to 4 µg/mL (≈ 3.27 to 6.55 µM) | 32 to 64 µg/mL (≈ 52.4 to 105 µM) | 32 to 64 µg/mL (≈ 52.4 to 105 µM) | 2 to 4 µg/mL (≈ 3.27 to 6.55 µM) | 32 to 64 µg/mL (≈ 52.4 to 105 µM) | 32 to 64 µg/mL (≈ 52.4 to 105 µM) | 32 to 64 µg/mL (≈ 52.4 to 105 µM) | 32 to 64 µg/mL (≈ 52.4 to 105 µM) | > 128 µg/mL | 2 to 4 µg/mL (≈ 3.27 to 6.55 µM)
2 | NCCN1CCN(C(=O)N[C@@H](C(=O)N[C@H]2Cc3cccc(C(=O)O)c3OB2O)c2ccc(O)c(F)c2F)C(=O)C1=O (single isomer, unassigned) [Example 170] | > 128 µg/mL | 0.5 to 1 µg/mL (≈ 0.869 to 1.74 µM) | 2 to 4 µg/mL (≈ 3.48 to 6.95 µM) | 8 to 16 µg/mL (≈ 13.9 to 27.8 µM) | 8 to 16 µg/mL (≈ 13.9 to 27.8 µM) | 2 to 4 µg/mL (≈ 3.48 to 6.95 µM) | 32 to 64 µg/mL (≈ 55.6 to 111 µM) | 32 to 64 µg/mL (≈ 55.6 to 111 µM) | 8 to 16 µg/mL (≈ 13.9 to 27.8 µM) | 2 to 4 µg/mL (≈ 3.48 to 6.95 µM) | 32 to 64 µg/mL (≈ 55.6 to 111 µM) | < 0.25 µg/mL
3 | NCCN1CCN(C(=O)N[C@H](C(=O)N[C@H]2Cc3cccc(C(=O)O)c3OB2O)c2cc(F)c(O)c(F)c2)C(=O)C1=O (single isomer, unassigned) [Example 158] | > 128 µg/mL | 2 to 4 µg/mL (≈ 3.48 to 6.95 µM) | 8 to 16 µg/mL (≈ 13.9 to 27.8 µM) | > 128 µg/mL | > 128 µg/mL | 8 to 16 µg/mL (≈ 13.9 to 27.8 µM) | > 128 µg/mL | > 128 µg/mL | > 128 µg/mL | 32 to 64 µg/mL (≈ 55.6 to 111 µM) | > 128 µg/mL | 0.5 to 1 µg/mL (≈ 0.869 to 1.74 µM)
4 | CCN1CCN(C(=O)NC(C(=O)N[C@H]2Cc3cccc(C(=O)O)c3OB2O)c2cccc(C(=O)O)c2)C(=O)C1=O (stereo partly drawn) [Example 113, (3R)-3-(2-(3-carboxyphenyl)-2-(4-ethyl-2,3-dioxopiperazine-1-carboxamido)acetamido)-2-hydroxy-3,4-dihydro-2H-benzo[e][1,2]oxaborinine-8-carboxylic acid] | > 128 µg/mL | < 0.25 µg/mL | 2 to 4 µg/mL (≈ 3.62 to 7.24 µM) | 32 to 64 µg/mL (≈ 57.9 to 116 µM) | 32 to 64 µg/mL (≈ 57.9 to 116 µM) | 2 to 4 µg/mL (≈ 3.62 to 7.24 µM) | > 128 µg/mL | > 128 µg/mL | 32 to 64 µg/mL (≈ 57.9 to 116 µM) | 8 to 16 µg/mL (≈ 14.5 to 29 µM) | > 128 µg/mL | 0.5 to 1 µg/mL (≈ 0.905 to 1.81 µM)
5 | CCN1CCN(C(=O)NC(C(=O)N[C@H]2Cc3cccc(C(=O)O)c3OB2O)c2cc(F)c(O)c(F)c2F)C(=O)C1=O (stereo partly drawn) [Example 172, (3R)-3-(2-(4-ethyl-2,3-dioxopiperazine-1-carboxamido)-2-(2,3,5-trifluoro-4-hydroxyphenyl)acetamido)-2-hydroxy-3,4-dihydro-2H-benzo[e][1,2]oxaborinine-8-carboxylic acid] | > 128 µg/mL | < 0.25 µg/mL | 2 to 4 µg/mL (≈ 3.46 to 6.92 µM) | 8 to 16 µg/mL (≈ 13.8 to 27.7 µM) | 32 to 64 µg/mL (≈ 55.3 to 111 µM) | 2 to 4 µg/mL (≈ 3.46 to 6.92 µM) | > 128 µg/mL | > 128 µg/mL | 32 to 64 µg/mL (≈ 55.3 to 111 µM) | 2 to 4 µg/mL (≈ 3.46 to 6.92 µM) | > 128 µg/mL | < 0.25 µg/mL
6 | NCCN1CCN(C(=O)NC(C(=O)N[C@H]2Cc3cccc(C(=O)O)c3OB2O)c2ccc(C(=O)O)c(Cl)c2)C(=O)C1=O (stereo partly drawn) [Example 153, (3R)-3-(2-(4-(2-aminoethyl)-2,3-dioxopiperazine-1-carboxamido)-2-(4-carboxy-3-chlorophenyl)acetamido)-2-hydroxy-3,4-dihydro-2H-benzo[e][1,2]oxaborinine-8-carboxylic acid] | > 128 µg/mL | 0.5 to 1 µg/mL (≈ 0.831 to 1.66 µM) | 8 to 16 µg/mL (≈ 13.3 to 26.6 µM) | 32 to 64 µg/mL (≈ 53.2 to 106 µM) | 32 to 64 µg/mL (≈ 53.2 to 106 µM) | 2 to 4 µg/mL (≈ 3.32 to 6.65 µM) | > 128 µg/mL | > 128 µg/mL | 32 to 64 µg/mL (≈ 53.2 to 106 µM) | 8 to 16 µg/mL (≈ 13.3 to 26.6 µM) | 32 to 64 µg/mL (≈ 53.2 to 106 µM) | 0.5 to 1 µg/mL (≈ 0.831 to 1.66 µM)
7 | NCCN1CCN(C(=O)N[C@@H](C(=O)N[C@H]2Cc3cccc(C(=O)O)c3OB2O)c2cc(F)c(O)c(F)c2F)C(=O)C1=O (single isomer, unassigned) [Example 168] | > 128 µg/mL | < 0.25 µg/mL | 0.5 to 1 µg/mL (≈ 0.843 to 1.69 µM) | 8 to 16 µg/mL (≈ 13.5 to 27 µM) | 8 to 16 µg/mL (≈ 13.5 to 27 µM) | 0.5 to 1 µg/mL (≈ 0.843 to 1.69 µM) | 32 to 64 µg/mL (≈ 53.9 to 108 µM) | 32 to 64 µg/mL (≈ 53.9 to 108 µM) | 8 to 16 µg/mL (≈ 13.5 to 27 µM) | 2 to 4 µg/mL (≈ 3.37 to 6.74 µM) | 32 to 64 µg/mL (≈ 53.9 to 108 µM) | < 0.25 µg/mL
